Assay results published in ChEMBL document CHEMBL1124220 (J Med Chem, 1988).
Residues, ends and D or L forms follow the SMILES beside them.

Test system: Rattus norvegicus
Experiment: In vivo angiotensin II like activity was measured in rat blood pressure assay expressed as percent activity relative to A II
Assay type: functional

Structure (SMILES)	Activity
CC[C@H](C)[C@H](NC(=O)[C@H](Cc1ccc(O)cc1)NC(=O)[C@@H](NC(=O)[C@@H](N)CCCCN=C(N)N)C(C)C)C(=O)N[C@@H](Cc1c[nH]cn1)C(=O)N1CCC[C@H]1C(=O)N[C@@H](Cc1ccccc1)C(=O)O	2.07%
CC[C@H](C)[C@H](NC(=O)[C@H](Cc1ccc(O)cc1)NC(=O)[C@@H](NC(=O)[C@H](C)NC(=O)[C@@H](N)CC(=O)O)C(C)C)C(=O)N[C@@H](Cc1c[nH]cn1)C(=O)N1CCC[C@H]1C(=O)N[C@@H](Cc1ccccc1)C(=O)O (H-DAVYIHPF-OH)	7.7%
